{"source": "patent US20220411525A1", "about": "“BCMA AS A TARGET FOR T CELL REDIRECTING ANTIBODIES IN B CELL LYMPHOMAS” (Janssen Pharmaceutica NV, priority 2021, published 2022)", "key": {"[1]": {"tested_on": "B cell malignancy cell lines", "assay": "BCMA mRNA relative to GAPDH by qPCR in cell lines", "assay_type": "cell-based", "conditions": "100 nM, 24 h, prior and after γ-secretase inhibition", "method": "To evaluate whether other malignancies besides multiple myeloma (MM) can potentially be targeted by BCMA directed immunotherapy, B cell malignancy cell lines were assessed for BCMA expression by flow cytometry. […] Per FIG. 1A, B cell malignancy cell lines were cultured and basal levels of BCMA were assessed by flow cytometry and compared to isotype controls. (n=3-8). Dotted line indicates no increase compared to isotype control. In accordance with FIG. 1B, cell lines were treated for 24-48h with 100nM γ-secretase inhibitor or with medium control and BCMA was assessed by flow cytometry. Values are represented as fold increase compared to 0 nM γ-secretase inhibitor. (n=3-12) Dotted line indicates no increase compared to 0 nM γ-secretase inhibitor. […] The P value was calculated by paired t test of Wilcoxon test (FIG. 1A-1B) or simple linear regression (FIG. 1E). […]\nSince BCMA is known to be cleaved off by γ-secretase, it was evaluated whether inhibition of this enzyme would lead to enhanced BCMA levels on these B cell lines. […]\n(§1) BCMA characterization by flow cytometry and quantitative polymerase chain reaction. […] After 24 or 48 h BCMA was detected by flow cytometry as described above. Relative expression was calculated compared to isotype controls. […]"}, "primary CLL cells": {"tested_on": "primary CLL cells", "assay": "BCMA level by flow cytometry on primary CLL cells after γ-secretase inhibition", "assay_type": "cell-based, human", "conditions": "100 nM", "method": "Primary CLL samples were stained for BCMA expression by flow cytometry and compared to isotype controls. […] As provided in FIG. 2A, CLL cells were cultured and basal levels of BCMA were assessed by flow cytometry and compared to isotype controls. (n=25). For FIG. 2B, CLL cells were treated for 24 or 48h with 0nM or 100 nM γ-secretase inhibitor and BCMA was assessed by flow cytometry. Values are represented as fold increase compared to medium control. (n=12-28). FIG. 2C provides basal levels of BCMA compared to isotype control among CLL patients with mutated or unmutated IgVH. (n=4-10). […] (n=4-12) The P value was calculated by Wilcoxon test (FIGS. 2A-2B), Mann Whitney test (FIGS. 2B, 2C, 2D) or paired t test (FIGS. 2E, F). […]\nFlow cytometry. […] After antibody staining, samples were washed using PBA and acquired on BD FACS Canto or LSR Fortessa flow cytometer and analysed with FlowJo v10. To quantify number of cells using flow cytometry, 123count eBeads™ Counting Beads (Thermo Fisher Scientific) according to manufacturer's instructions. BCMA molecules per cell were determined by usage of PE Phycoerythrin Fluorescence Quantitation Kit (BD Biosciences).\nas §1"}}, "data": [{"smiles": "C[C@H](NC(=O)[C@@H](O)c1cc(F)cc(F)c1)C(=O)N[C@@H]1C(=O)N(C)c2ccccc2-c2ccccc21", "note": "[Ly411575]", "values": [{"measurement": "BCMA mRNA levels", "setting": "[1]", "result": "remained equal"}, {"measurement": "BCMA level on CLL cells", "setting": "primary CLL cells; 24 h", "result": "small but significant upregulation of BCMA"}, {"measurement": "BCMA level on CLL cells", "setting": "primary CLL cells; 48 h, compared to 24 h", "result": "further enhanced"}]}]}
